Reference: patent US20240393292A1, “ALLERGY ANTIGEN AND EPITOPE THEREOF” (HOYU CO., LTD., priority 2019, published 2024)
Each block holds one substance with its values, some of them ahead of it.

Test system: IgE antibodies from patients
Assay: Wheat epitope mapping (2): overlapping 10-amino-acid peptide fragments shifted by one amino acid;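 for Rank of partial sequence as epitope binding to IgE antibody: key = sequence deemed particularly important within the common 15-residue sequence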;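 for epitope sequence binding to IgE antibody, rank (Key/Preferably/More preferably): key of grades: preferably = shorter partial sequence still acting as epitope; more preferably = sequence improving IgE binding; key = particularly important sequence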
Assay type: binding, human
Details: for Epitope sequence binding to IgE antibody, rank of the sequence (Key/Preferably/More preferably/Further preferably): serum of patient P50 (child, general immediate type allergy to wheat)
In short: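 Residual binding was banded as <30% none, 30–<50% poor, 50–<70% somewhat poor and ≥70% retained, relative to the parent overlapping sequence set to 100%. Values were chemiluminescent IgE signals from patient sera after subtracting secondary-antibody-only controls. The peptides were spot-synthesised 10-mers shifted by one amino acid.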

[1] = serum of patient P10 (WDEIA), sequence without X
[2] = serum of patient P12 (WDEIA), sequence without X
[3] = serum of patient P25 (WDEIA), sequence without X
[4] = serum of patient P14 (WDEIA), sequence without X
[5] = serum of patient P3 (WDEIA), partial sequence

Substance: 1803 (SGKELE; REGION 1..6: note = epitope) [compound 1803]
epitope sequence binding to IgE antibody, rank (Key/Preferably/More preferably) (serum of patient P18 (WDEIA)): Key

Substance: 1730 (SQVIIM; REGION 1..6: note = epitope) [compound 1730]
epitope sequence binding to IgE antibody, rank (Key/Preferably/More preferably) (serum of patient P52 (child, general immediate type allergy to wheat)): Key

Substance: 1741 (SQVIIM; REGION 1..6: note = epitope) [compound 1741]
epitope sequence binding to IgE antibody, rank (Key/Preferably/More preferably) (serum of patient G1 (adult, general immediate type allergy to wheat)): Key

Substance: 1823 (LPKFL; REGION 1..5: note = epitope) [compound 1823]
epitope sequence binding to IgE antibody, rank (Key/Preferably/More preferably) (serum of patient P35 (WDEIA)): Key

Substance: 1830 (LPKFL; REGION 1..5: note = epitope) [compound 1830]
epitope sequence binding to IgE antibody, rank (Key/Preferably/More preferably) (serum of patient G6 (adult, general immediate type allergy to wheat)): Key

Substance: 1255 (PQQPPC; REGION 1..6: note = epitope) [compound 1255]
Epitope sequence binding to IgE antibody, rank of the sequence (serum of patient P36 (WDEIA), sequence without X): Preferably

Substance: 1375 (PWQQQPL; REGION 1..7: note = epitope) [compound 1375]
Epitope sequence binding to IgE antibody, rank of the sequence (serum of patient P7 (WDEIA), sequence without X): Key

Substance: 1221 (PIQQQPQPF; REGION 1..9: note = epitope) [compound 1221]
Epitope sequence binding to IgE antibody, rank of the sequence [1]: Preferably

Substance: 1226 (PIQQQP; REGION 1..6: note = epitope) [compound 1226]
Epitope sequence binding to IgE antibody, rank of the sequence [2]: Key

Substance: 1785 (LKKVGYNP; REGION 1..8: note = epitope) [compound 1785]
epitope sequence binding to IgE antibody, rank (Key/Preferably/More preferably) (serum of patient G7 (adult, general immediate type allergy to wheat)): Key

Substance: 1208 (QQFPPQQ; REGION 1..7: note = epitope) [compound 1208]
Epitope sequence binding to IgE antibody, rank of the sequence (serum of patient P35 (WDEIA), sequence without X): Key

Substance: 1527 (QVPLVQQQQ; REGION 1..9: note = epitope) [compound 1527]
Rank of partial sequence as epitope binding to IgE antibody [2]: More preferably

Substance: 1762 (KEVSSYLKK; REGION 1..9: note = epitope) [compound 1762]
epitope sequence binding to IgE antibody, rank (Key/Preferably/More preferably) (serum of patient P27 (WDEIA)): Key

Substance: 1655 (FVPISG; REGION 1..6: note = epitope) [compound 1655]
Rank of partial sequence as epitope binding to IgE antibody (serum of patient P51 (child, general immediate type allergy to wheat), sequence without X): Key

Substance: 1503 (QPISQQQA; REGION 1..8: note = epitope) [compound 1503]
Rank of partial sequence as epitope binding to IgE antibody (serum of patient G7 (adult, general immediate type allergy to wheat), sequence without X): Preferably

Substance: 1759 (YLKK; REGION 1..4: note = epitope) [compound 1759]
epitope sequence binding to IgE antibody, rank (Key/Preferably/More preferably) (serum of patient P17 (WDEIA)): Key

Substance: 1897 (VPLVQQ; REGION 1..6: note = epitope) [compound 1897]
epitope sequence binding to IgE antibody, rank (Key/Preferably/More preferably) (serum of patient P2 (WDEIA)): Key

Substance: 1820 (PKFLK; REGION 1..5: note = epitope) [compound 1820]
epitope sequence binding to IgE antibody, rank (Key/Preferably/More preferably) (serum of patient P33 (WDEIA)): Key

Substance: 1628 (YNPDKVP; REGION 1..7: note = epitope) [compound 1628]
Rank of partial sequence as epitope binding to IgE antibody (serum of patient P27 (WDEIA), sequence without X): Preferably

Substance: 1680 (YNPDKVPF; REGION 1..8: note = epitope) [compound 1680]
Rank of partial sequence as epitope binding to IgE antibody (serum of patient G6 (adult, general immediate type allergy to wheat), sequence without X): More preferably

Substance: 1372 (QPLPPQQQ; REGION 1..8: note = epitope) [compound 1372]
Epitope sequence binding to IgE antibody, rank of the sequence (serum of patient P4 (WDEIA), sequence without X): Key

Substance: 1900 (QVPLVQQ; REGION 1..7: note = epitope) [compound 1900]
epitope sequence binding to IgE antibody, rank (Key/Preferably/More preferably) (serum of patient P3 (WDEIA)): Preferably

Substance: 1248 (PQQPP; REGION 1..5: note = epitope) [compound 1248]
Epitope sequence binding to IgE antibody, rank of the sequence (serum of patient P32 (WDEIA), sequence without X): Key

Substance: 1665 (VPFVPISG; REGION 1..8: note = epitope) [compound 1665]
Rank of partial sequence as epitope binding to IgE antibody (serum of patient G2 (adult, general immediate type allergy to wheat), sequence without X): Key

Substance: 1611 (YNPD; REGION 1..4: note = epitope) [compound 1611]
Rank of partial sequence as epitope binding to IgE antibody (serum of patient P8 (WDEIA), sequence without X): Key

Substance: 1582 (FPQTQQPQ; REGION 1..8: note = epitope) [compound 1582]
Rank of partial sequence as epitope binding to IgE antibody (serum of patient P20 (WDEIA), sequence without X): Preferably

Substance: 1711 (KEAANFT; REGION 1..7: note = epitope) [compound 1711]
epitope sequence binding to IgE antibody, rank (Key/Preferably/More preferably) (serum of patient P34 (WDEIA)): Preferably

Substance: 1804 (KFLKN; REGION 1..5: note = epitope) [compound 1804]
epitope sequence binding to IgE antibody, rank (Key/Preferably/More preferably) (serum of patient P18 (WDEIA)): Key

Substance: 1575 (QQPQQ; REGION 1..5: note = epitope) [compound 1575]
Rank of partial sequence as epitope binding to IgE antibody (serum of patient P16 (WDEIA), sequence without X): Preferably

Substance: 1534 (QQQQFLG; REGION 1..7: note = epitope) [compound 1534]
Rank of partial sequence as epitope binding to IgE antibody [4]: Preferably

Substance: 1809 (ELEALPKFL; REGION 1..9: note = epitope) [compound 1809]
epitope sequence binding to IgE antibody, rank (Key/Preferably/More preferably) (serum of patient P26 (WDEIA)): Preferably

Substance: 1689 (SQVIIM; REGION 1..6: note = epitope) [compound 1689]
Rank of partial sequence as epitope binding to IgE antibody [4]: Key

Substance: 1701 (EAANFT; REGION 1..6: note = epitope) [compound 1701]
Rank of partial sequence as epitope binding to IgE antibody [3]: Key

Next, values leading:

Epitope sequence binding to IgE antibody, rank of the sequence (Key/Preferably/More preferably) (serum of patient P52 (child, general immediate type allergy to wheat), sequence without X): Preferably
Substance: 2250 (SRLLRGIRN; REGION 1..9: note = epitope) [compound 2250]

epitope sequence binding to IgE antibody, rank (Key/Preferably/More preferably) (serum of patient P28 (WDEIA)): More preferably
Substance: 1958 (QQFPGQQQ; REGION 1..8: note = epitope) [compound 1958]

Epitope sequence binding to IgE antibody, rank of the sequence (serum of patient P7 (WDEIA), partial sequence): Preferably
Substance: 2552 (QLVQQLCC; REGION 1..8: note = epitope) [compound 2552]

epitope sequence binding to IgE antibody, rank (Key/Preferably/More preferably) (serum of patient P34 (WDEIA)): Key
Substance: 1968 (QFPGQQ; REGION 1..6: note = epitope) [compound 1968]

Epitope sequence binding to IgE antibody, rank of the sequence (serum of patient G6 (adult, general immediate type allergy to wheat), partial sequence): Key
Substance: 2608 (QLVQQL; REGION 1..6: note = epitope) [compound 2608]

Epitope sequence binding to IgE antibody, rank of the sequence (serum of patient G7 (adult, general immediate type allergy to wheat), partial sequence): Preferably
Substance: 2541 (SSQVSFQPSQ; REGION 1..10: note = epitope) [compound 2541]

Epitope sequence binding to IgE antibody, rank of the sequence (serum of patient P31 (WDEIA), partial sequence): Preferably
Substance: 2652 (KEAAEM; REGION 1..6: note = epitope) [compound 2652]

Epitope sequence binding to IgE antibody, rank of the sequence (Key/Preferably/More preferably) [2]: More preferably
Substance: 2350 (YVTEIVL; REGION 1..7: note = epitope) [compound 2350]

Epitope sequence binding to IgE antibody, rank of the sequence (Key/Preferably/More preferably) (serum of patient P18 (WDEIA), sequence without X): Key
Substance: 2283 (ERFEKE; REGION 1..6: note = epitope) [compound 2283]

Epitope sequence binding to IgE antibody, rank of the sequence (serum of patient P21 (WDEIA), partial sequence): Key
Substance: 2558 (QSTYQLVQQL; REGION 1..10: note = epitope) [compound 2558]

Epitope sequence binding to IgE antibody, rank of the sequence (Key/Preferably/More preferably/Further preferably) (sequence without X): More preferably
Substance: 2405 (RCAYVTEIVL; REGION 1..10: note = epitope) [compound 2405]

Epitope sequence binding to IgE antibody, rank of the sequence (Key/Preferably/More preferably) [3]: Key
Substance: 2315 (IIYS; REGION 1..4: note = epitope) [compound 2315]

Epitope sequence binding to IgE antibody, rank of the sequence (serum of patient P34 (WDEIA), partial sequence): Key
Substance: 2693 (YKGPTL; REGION 1..6: note = epitope) [compound 2693]

Epitope sequence binding to IgE antibody, rank of the sequence (Key/Preferably/More preferably) (serum of patient P30 (WDEIA), sequence without X): Preferably
Substance: 2236 (IRNYRVAI; REGION 1..8: note = epitope) [compound 2236]

Epitope sequence binding to IgE antibody, rank of the sequence (Key/Preferably/More preferably) (serum of patient P26 (WDEIA), sequence without X): Key
Substance: 2285 (GIDK; REGION 1..4: note = epitope) [compound 2285]

Epitope sequence binding to IgE antibody, rank of the sequence (Key/Preferably/More preferably) [1]: Key
Substance: 2276 (GGIDK; REGION 1..5: note = epitope) [compound 2276]

Epitope sequence binding to IgE antibody, rank of the sequence (serum of patient P27 (WDEIA), partial sequence): Preferably
Substance: 2725 (YKIGG; REGION 1..5: note = epitope) [compound 2725]

Epitope sequence binding to IgE antibody, rank of the sequence (serum of patient G5 (adult, general immediate type allergy to wheat), partial sequence): Key
Substance: 2606 (QLVQQL; REGION 1..6: note = epitope) [compound 2606]

Epitope sequence binding to IgE antibody, rank of the sequence (serum of patient P2 (WDEIA), partial sequence): Key
Substance: 2549 (QLVQQLCC; REGION 1..8: note = epitope) [compound 2549]

Epitope sequence binding to IgE antibody, rank of the sequence (serum of patient P17 (WDEIA), partial sequence): Preferably
Substance: 2712 (YKIGG; REGION 1..5: note = epitope) [compound 2712]

Epitope sequence binding to IgE antibody, rank of the sequence (serum of patient G3 (adult, general immediate type allergy to wheat), partial sequence): Preferably
Substance: 2625 (ASLSKRV; REGION 1..7: note = epitope) [compound 2625]

Epitope sequence binding to IgE antibody, rank of the sequence [5]: Key
Substance: 2704 (YKIGGI; REGION 1..6: note = epitope) [compound 2704]

Epitope sequence binding to IgE antibody, rank of the sequence (Key/Preferably/More preferably/Further preferably) (sequence without X): Preferably
Substance: 2245 (SRLLRGIR; REGION 1..8: note = epitope) [compound 2245]

Epitope sequence binding to IgE antibody, rank of the sequence [5]: Preferably
Substance: 2703 (YKIGGIGTV; REGION 1..9: note = epitope) [compound 2703]
